Test results taken from patent US20260248923A1, “BI-SPECIFIC ADAPTERS AND THEIR USE WITH UNIVERSAL CAR-T CELLS IN THE TREATMENT OF TUMORS AND THE INHIBITION OF CANCER-ASSOCIATED FIBROBLASTS” (priority 2023, published 2026).
Read-outs that look alike come from different tables or passages of the source.

Columns and labels:
[1] = test system: MDA-PSMA tumors (high PSMA level); test: MDA-PSMA tumor in NSG mice with anti-FITC CAR T-cells; details: for eradication of MDA-PSMA tumors: 10 million anti-FITC CAR T-cells
Experimental: MDA-PSMA cells (high PSMA level; 5 million cells) were implanted into each NSG mouse by subcutaneous injection. […] The tumor volume and body weight were monitored regularly. Tumor volume was calculated using the formula: (length*width^2)/2. […] MDA-PSMA cells (5 million) were implanted into each NSG mouse by subcutaneous injection. […] The volumes of the tumors and the body weights of the mice were monitored regularly. Tumor volume was calculated using the formula: (length*width^2)/2.

22Rv1 tumor = 22Rv1 tumor in NSG mice with anti-FITC CAR T cells; format: in vivo; details: 10 million anti-FITC CAR T cells
[2] = test system: MDA-MB-231-PSMA tumor cells; details: mouse, in vivo
Experimental: (§2) The mice were euthanized at the indicated time points after injection. Tumors were dissected and dissociated into single cells. Fluorescent intensity of FITC indicating the total retention of the adapters in the tumor cells were analyzed by flow cytometry. To analyze the surface retention of the adapters on the tumor cell surface, the dissociated tumor cells were stained with APC-anti-FITC antibody, and the fluorescent intensity of APC was analyzed by flow cytometry.

PSMA [3] = molecular target: T1, PSMA (Homo sapiens, UniProt Q04609); test: Binding to MDA-PSMA cells by flow cytometry (MFI of FITC)
T1 construct: expressed in transfected cells; host or cells: MDA-MB-231 (MDA-PSMA / PSMA+ MDA-MB-231)
T1 sequence (Q04609 whole entry): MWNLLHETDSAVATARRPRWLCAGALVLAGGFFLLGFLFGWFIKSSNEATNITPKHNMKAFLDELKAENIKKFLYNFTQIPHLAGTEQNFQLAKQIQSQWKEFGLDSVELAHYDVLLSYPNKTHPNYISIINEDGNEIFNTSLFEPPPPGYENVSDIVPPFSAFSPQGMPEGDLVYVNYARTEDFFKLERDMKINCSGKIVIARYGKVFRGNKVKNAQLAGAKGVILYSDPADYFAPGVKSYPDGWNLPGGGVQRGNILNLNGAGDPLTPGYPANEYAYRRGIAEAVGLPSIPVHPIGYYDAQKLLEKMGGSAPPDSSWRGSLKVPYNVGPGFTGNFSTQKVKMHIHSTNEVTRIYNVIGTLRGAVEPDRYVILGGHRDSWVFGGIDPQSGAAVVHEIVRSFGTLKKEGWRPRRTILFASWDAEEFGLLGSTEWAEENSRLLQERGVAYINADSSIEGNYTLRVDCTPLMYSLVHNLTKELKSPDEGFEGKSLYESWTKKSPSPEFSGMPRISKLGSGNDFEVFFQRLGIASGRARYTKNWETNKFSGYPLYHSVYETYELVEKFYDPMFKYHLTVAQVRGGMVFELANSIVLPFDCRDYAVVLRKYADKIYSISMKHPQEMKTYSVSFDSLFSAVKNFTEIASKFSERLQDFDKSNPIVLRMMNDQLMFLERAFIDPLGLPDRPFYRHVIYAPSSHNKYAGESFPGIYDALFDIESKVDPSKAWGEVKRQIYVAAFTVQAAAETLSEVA
Experimental: MDA-PSMA cells (0.2 million) were incubated with 2-fold serial diluted adapters starting from 500 nM in complete RPMI medium (RPMI+10% FBS) for 1 hour at room temperature. Cells were washed twice with 2% FBS in PBS and resuspended in the same buffer. Fluorescent intensity of fluorescein isothiocyanate (FITC) was analyzed by flow cytometer.
MDA-PSMA cells (0.2 million) were incubated with 1 μM of DUPA-FITC conjugates with different PEG linkers in complete RPMI medium (RPMI+10% FBS) for 1 hour at room temperature. Free compounds were washed away, and fluorescent intensity of FITC was analyzed by flow cytometer. To analyze the surface exposure of FITC moiety, the stained cells were incubated with APC-anti-FITC on ice for 30 minutes.
MDA-PSMA cells (0.2 million) were incubated with 2-fold serial diluted adapters starting from 500 nM in complete RPMI medium (RPMI+10% FBS) for 1 hour at room temperature. Cells were washed twice with 2% FBS in PBS and resuspended in the same buffer. Fluorescent intensity of FITC was analyzed by flow cytometer.

22Rv1 cells [4] = test: 22Rv1 / anti-FITC CAR T co-culture, 48 hours; format: cell-based
Experimental: The number of 22Rv1 cells was counted at the end of the co-culture. The cytotoxicity of anti-FITC CAR T cells was calculated using the formula: (number of untreated 22Rv1 cells−number of treated 22Rv1 cells)/number of untreated 22Rv1 cells*100%. Concentrations of IFNγ in the co-culture medium were analyzed by ELISA using human IFNγ ELISA kit (Biolegend).

MDA-PSMA cells = test: Retention in MDA-PSMA cells in vitro (confocal, flow cytometry); format: cell-based; details: 1 μM one hour, washed, 37 C
Experimental: (§1) Unbound compounds were washed away, and the cells were cultured in RPMI containing 10% FBS at 37° C. with 5% CO2. At indicated time points, the cells were imaged under a confocal microscope to analyze the intensity and location of FITC. […] To analyze the surface-bound FITC, the cells were stained with APC-anti-FITC antibody for 30 minutes on ice at different time points. The fluorescence intensity of APC was analyzed by flow cytometer.

22Rv1 cells [5] = test: Retention in 22Rv1 cells in vitro; format: cell-based; details: 1 μM one hour, washed, 37 C
Experimental: as §1

MDA-MB-231-PSMA tumors = test: Fluorescent imaging of MDA-PSMA tumor bearing mice; format: in vivo; details: 500 nmol/kg intravenously
From the text: MDA-PSMA tumor bearing mice were intravenously injected with the indicated adapters at 500 nmol/kg. Fluorescent images of the mice were taken in the Spectral Ami imaging system at the indicated time points after injection.

[6] = test system: TagCAR (universal anti-fluorescein CAR); test: Competition assay against FL-AF647 on TagCAR T cells; format: binding; details: Ki=IC50/(1+[S]/Km), [FL-AF647]=100 nM, triplicates from different donors; read-out: mean calculated inhibitor constant (Ki)
Experimental: PSMAL1-PEG6-FITC strongly binds to TagCAR T cells generated using TagCAR lentiviral particles. […] Due to fluorescein fluorescence being quenched when bound by TagCAR, TagCAR T cells were instead incubated with saturating levels of FL-AF647, which was then competed off by increasing concentrations of PSMAL1-PEG6-FITC. As compared to the antigen-only control sodium fluorescein (NaFL), lower concentrations of PSMAL1-PEG6-FITC were necessary to compete with FL-AF647, as detected by the mean fluorescent intensity (MFI) of FL-AF647.

PSMA [7] = molecular target: T1, PSMA; test: SurfaceTag on-cell binding to PSMA+ MDA-MB-231 tumor cells
Experimental: PSMAL1-PEG6-FITC strongly localizes on the surface of PSMA-positive tumor cells. To characterize the on-cell binding affinity of PSMAL1-PEG6-FITC to PSMA-expressing tumor cells, different concentrations of PSMAL1-PEG6-FITC were incubated with […] tumor cells that either over-expressed PSMA (PSMA^+) or were wildtype (PSMA−). Levels of surface fluorescein antigen on MDA-MB-321 tumor cells were detected using an anti-fluorescein antibody (FIG. 44A).

[8] = test system: PSMA+ MDA-MB-231 tumor cells; test: TagCAR T cell coculture with PSMA-overexpressing MDA-MB-231 tumor cells; format: cell-based
Experimental: PSMAL1-PEG6-FITC elicits dose-dependent TagCAR T cell function in vitro. The efficacy of TagCAR T cells generated as described in Example 42 mediated by PSMAL1-PEG6-FITC on PSMA-positive tumor cells was investigated in vitro. The normalized fold tumor cell growth of PSMA-overexpressing (PSMA^+) MDA-MB-231 tumor cells was measured every four hours during an 88-hour coculture of PSMA^+ MD-MB-231 tumor cells and different concentrations of PSMAL1-PEG6-FITC in the presence of TagCAR T cells generated as described in Example 42.
In addition, cytokine levels were measured in culture supernatants 24 hours following the addition of TagCAR T cells generated as described in Example 42 and different concentrations of PSMAL1-PEG6-FITC to PSMA MD-MB-231 tumor cells.
The presence of TagCAR+ cells (FIG. 45C) and presence of CD25+(FIG. 45D) in CD3+ T cells were also measured after 88 hours of coculture with PSMA^+ MDA-MB-231 tumor cells with different concentrations of PSMAL1-PEG6-FITC. CD3+ T cells with TagCAR had higher percentages of CD25+ as compared to CD3+ T cells without TagCAR.

[9] = test system: MDA-MB-231-PSMA tumor cells; test: Total and surface retention of adapters on MDA-PSMA tumor cells in vivo (flow cytometry)
Experimental: as §2

## CC(C)(C)OC(=O)CC[C@H](NC(=O)N[C@@H](CCC(=O)OCc1ccccc1)C(=O)OC(C)(C)C)C(=O)OC(C)(C)C (stereo in doubt) [DUPA-PEG6-FITC, 2-[3-(3-Benzyloxycarbonyl-1-tert-butoxycarbonyl-propyl)-ureido]pentanedioic Acid Di tert-butyl Ester]
[1]
  eradication of MDA-PSMA tumors: good efficacy on eliminating MDA-PSMA tumors
[1]; mouse, in vivo
  body weight loss: no body weight loss was observed
22Rv1 tumor
  growth of 22Rv1 tumor: didn't show much efficacy
[2]
  tumor cells that retained adapter on the surface: 9%
  tumor cells that still had adapter in the cells (total FITC): 13%

## O=C(O)CC[C@H](NC(=O)N[C@@H](CCCCNC(=O)[C@H](Cc1ccc2ccccc2c1)NC(=O)[C@H]1CC[C@H](CNC(=O)CCOCCOCCOCCOCCOCCOCCNC(=S)Nc2ccc(-c3c4ccc(=O)cc-4oc4cc(O)ccc34)c(C(=O)O)c2)CC1)C(=O)O)C(=O)O [PSMAL1-PEG6-FITC]
PSMA [3]
  binding affinity relative to DUPA-PEG6-FITC: five-fold higher
PSMA [3]; 1 hour room temperature
  binding affinity and total binding (MFI of FITC): Higher Binding Affinity and Higher Total Binding than DUPA-PEG6-FITC
22Rv1 cells [4]; low concentration
  lysis of 22Rv1 cells by anti-FITC CAR-T cells: much higher than DUPA-PEG6-FITC at low concentration
22Rv1 cells [4]; low concentrations
  IFNγ secreted by anti-FITC CAR-T cells: higher than DUPA-PEG6-FITC at low concentrations
[1]
  eradication of MDA-PSMA tumors: good efficacy on eliminating MDA-PSMA tumors
[1]; during treatment
  body weight loss: no body weight loss was observed
MDA-PSMA cells
  retention in MDA-MB-231-PSMA cells (confocal images): stayed longer in MDA-MB-231-PSMA cells than DUPA-PEG6-FITC
  retention in MDA-PSMA cells expressing different levels of PSMA (flow cytometry): stayed longer in MDA-PSMA cells expressing different levels of PSMA than DUPA-PEG6-FITC
22Rv1 cells [5]
  retention in 22Rv1 cells (flow cytometry): stayed longer in 22Rv1 cells
MDA-MB-231-PSMA tumors
  retention in MDA-MB-231-PSMA tumors (fluorescent images): Better Retention in MDA-MB-231-PSM4 Tumors than DUPA-PEG6-FITC and DUPA-FITC
22Rv1 tumor
  growth of 22Rv1 tumor: inhibited the growth of 22Rv1 tumor significantly
[6]
  Ki: 9.9 nM
PSMA [7]; PSMA+ tumor cells
  Bmax (total antigen amount): 2.6×10^6 MFI
PSMA [7]; PSMA+ tumor cells, anti-fluorescein antibody, read-out: Kd (on-cell binding affinity)
  Kd: 1.29 nM
PSMA [7]; PSMA+ vs PSMA- cells
  localization on surface of PSMA-expressing tumor cells: specifically localized on the surface of PSMA-expressing tumors
[8]; 88-hour coculture with TagCAR T cells
  normalized fold tumor cell growth: tumor size decreased
[8]; 24 hours
  IFNg and IL-2 levels in culture supernatants: increased with increasing doses
[9]; 48 hours post-injection
  tumor cells that retained adapter on the surface: 65%
  tumor cells that still had adapter in the cells (total FITC): 77%
[9]; 144 hours post-injection
  tumor cells that retained adapter (total FITC): 45%
  tumor cells that retained adapter on the surface: 34%
